Experimental data: US4505905A, “Cyclobutanone antibacterials” (E. I. Du Pont de Nemours and Company, priority 1982, dated 1985)
≈ marks a conversion by molar mass, not a printed value. Read-outs that look alike come from different tables or passages of the source.

Columns and labels:
[1] = system: penicillin-resistant Staphylococcus aureus strain; test: Intrinsic antibacterial activity, microdilution method (MIC, compound alone); details: for MIC: Staphylococcus aureus
[2] = biological target: Pencillinase Type I (a β-lactamase from Bacillus cereus) (Bacillus cereus, UniProt P00809); test: Inhibition of the hydrolysis of penicillin G by Pencillinase Type I; type: biochemical; details: penicillin G 0.6 mg/mL; enzyme 2.8 μg/mL; inhibitor 75 μg/mL; read-out: percent inhibition of hydrolysis of penicillin G
Sequence of Pencillinase Type I (a β-lactamase from Bacillus cereus) (P00809 28-306): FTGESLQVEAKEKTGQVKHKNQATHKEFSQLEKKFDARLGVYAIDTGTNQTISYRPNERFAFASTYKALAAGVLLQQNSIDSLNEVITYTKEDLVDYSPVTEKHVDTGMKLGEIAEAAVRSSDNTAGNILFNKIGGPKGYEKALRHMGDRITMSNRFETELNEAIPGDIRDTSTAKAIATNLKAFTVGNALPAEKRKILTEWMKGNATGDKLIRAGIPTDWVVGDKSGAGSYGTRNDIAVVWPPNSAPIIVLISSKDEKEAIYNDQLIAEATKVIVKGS

[3] = system: penicillin-resistant Staphylococcus aureus strain; test: Antibacterial activity in combination with benzyl penicillin, modified microdilution technique; details: Table 4; for Effective Combination Concentrations: Units/mL Benzyl Penicillin: concentration of benzyl penicillin combined with the compound; for Effective Combination Concentrations: μg/mL Compound: concentration of compound in combination with benzyl penicillin
[4] = system: Bacillus cereus var. mycoides; test: microbe, parasite or virus in culture; type: cell-based, Bacillus cereus var. mycoides: ATCC 11778; details: for MIC: Bacillus cereus, read-out: MIC: μg/mL Compound Alone; for active against B. cereus var. mycoides: Table 6
[5] = system: Penicillin Gresistant strain of Staphylococcus Aureus; test: Survival of mice infected with a Penicillin G resistant strain of Staphylococcus Aureus; type: in vivo
Description: ^3 In mice infected with a Penicillin Gresistant strain of
Staphylococcus Aureus, the orally administered combination of 32, at 125
mg/kg of body weight, and Penicillin G, at 80 mg/kg of body weight, […]

[6] = system: Bacillus cereus var. mycoides; type: cell-based, Bacillus cereus var. mycoides: ATCC 11778; details: Table 6; for Effective Combination Concentrations: Units/mL Benzyl Penicillin: concentration of benzyl penicillin combined with the compound; for Effective Combination Concentrations: μg/mL Compound: concentration of compound in combination with benzyl penicillin
[7] = read-out: MIC: μg/mL Compound Alone

O=C(OC(c1ccccc1)c1ccccc1)C1=C([S+]([O-])c2ccccc2)CC2CC(=O)C12 (stereo not drawn) [Compound 16, 3-Phenylsulfinyl-7-oxobicyclo[3.2.0]hept-2-en-2-carboxylic Acid, Diphenylmethyl Ester]
MIC ([1]; read-out: Microdilution MIC): 50 µg/mL (≈ 113 µM)

CC(=O)NCCSC1=C(C(=O)OC(c2ccccc2)c2ccccc2)C2C(=O)CC2C1 (stereo not drawn) [Compound 24, 3-(2'-Acetamidoethylthio)-7-oxobicyclo-[3.2.0]hept-2-en-2-carboxylic Acid, Diphenylmethyl Ester]
inhibition at 75 µg/mL [2]: 30 to 40% | Effective Combination Concentrations: Units/mL Benzyl Penicillin [3]: 20 Units/mL | Effective Combination Concentrations: μg/mL Compound [3]: 12.5 µg/mL | MIC [1, 7]: > 100 µg/mL

O=C(OC(c1ccccc1)c1ccccc1)C1=CCC2C1C(=O)C2(Cl)C(O)c1ccccc1 (stereo not drawn) [Compound 75, 6-Chloro-6-(α'-hydroxybenzyl)-7-oxobicyclo[3.2.0]hept-2-en-2-carboxylic Acid, Diphenylmethyl Ester]
Effective Combination Concentrations: Units/mL Benzyl Penicillin [3]: 10 Units/mL | Effective Combination Concentrations: μg/mL Compound [3]: 6.3 µg/mL | MIC [1, 7]: > 100 µg/mL

CC(=O)NCC[S+]([O-])C1=C(C(=O)OCc2cccc3ccccc23)C2C(=O)CC2C1 (stereo not drawn) [Compound 29, 3-(2'-Acetamidoethylsulfinyl)-7-oxobicyclo[3.2.0]hept-2-en-2-carboxylic Acid, 1-Naphthylmethyl Ester]
Effective Combination Concentrations: Units/mL Benzyl Penicillin [3]: 20 Units/mL | Effective Combination Concentrations: μg/mL Compound [3]: 25 µg/mL | MIC [1, 7]: 100 µg/mL (≈ 235 µM)

CC(=O)NCCSC1=C(C(=O)O)C2C(=O)CC2C1 (stereo not drawn) [Compound 25, 3-(2'-Acetamidoethylthio)-7-oxobicyclo[3.2.0]hept-2-en-2-carboxylic Acid]
inhibition at 75 µg/mL [2]: 10 to 15%

CC1(C)S[C@@H]2[C@H](NC(=O)Cc3ccccc3)C(=O)N2[C@H]1C(=O)O [benzyl penicillin, reference compound]
Benzyl penicillin MIC ([4]; Table 6 footnote, alone): 100 units/mL | Minimum Inhibitory Concentration of Benzyl Penicillin ([1]; Table 4 footnote, alone): 100 units/mL | minimum inhibitory concentration (MIC) of benzyl penicillin ([1]; test isolate, benzyl penicillin alone): > 100 units per mL | survival ([5]; Penicillin G by itself, 80 mg/kg): 33.3%

O=C(OC(c1ccccc1)c1ccccc1)C1=C([S+]([O-])CCNC(=O)C(c2ccccc2)c2ccccc2)CC2CC(=O)C12 (stereo not drawn) [Compound 64]
Effective Combination Concentrations: Units/mL Benzyl Penicillin [3]: 20 Units/mL | Effective Combination Concentrations: μg/mL Compound [3]: 3.2 µg/mL | MIC [1, 7]: > 100 µg/mL

CC(=O)NCC[S+]([O-])C1=C(C(=O)OC(c2ccccc2)c2ccccc2)[C@H]2C(=O)[C@H]([C@H](C)O)[C@H]2C1 (relative stereo) [Compound 78, 3-(2-Acetamidoethylsulfinyl)-6-(1-hydroxyethyl)-7-oxobicyclo[3.2.0]hept-2-en-2-carboxylic Acid, Diphenylmethyl Ester]
Effective Combination Concentrations: Units/mL Benzyl Penicillin [3]: 20 Units/mL | Effective Combination Concentrations: μg/mL Compound [3]: 12.5 µg/mL | MIC [1, 7]: 50 µg/mL (≈ 101 µM)

CC(=O)NCCSC1=C(C(=O)OCc2cccc3ccccc23)C2C(=O)CC2C1 (stereo not drawn) [Compound 28, 3-(2'-Acetamidoethylthio)-7-oxobicyclo[3.2.0]hept-2-en-2-carboxylic Acid, 1-Naphthylmethyl Ester]
Effective Combination Concentrations: Units/mL Benzyl Penicillin [3]: 20 Units/mL | Effective Combination Concentrations: μg/mL Compound [3]: 25 µg/mL | MIC [1, 7]: > 100 µg/mL

O=C(OC(c1ccccc1)c1ccccc1)C1=C(S(=O)(=O)c2ccccc2)CC2CC(=O)C12 (stereo not drawn) [Compound 20, 3-Phenylsulfonyl-7-oxobicyclo[3.2.0]hept-2-en-2-carboxylic Acid, Diphenylmethyl Ester]
MIC ([1]; read-out: Microdilution MIC): 100 µg/mL (≈ 218 µM)

O=C(OC(c1ccccc1)c1ccccc1)C1=CCC2CC(=O)C12 (stereo not drawn) [Compound 13, 7-Oxobicyclo[3.2.0]hept-2-en-2-carboxylic Acid, Diphenylmethyl Ester]
Effective Combination Concentrations: Units/mL Benzyl Penicillin [3]: 10 Units/mL | Effective Combination Concentrations: μg/mL Compound [3]: 12.5 µg/mL | MIC [1, 7]: > 100 µg/mL

CC(=O)NCC[S+]([O-])C1=C(C(=O)OC(c2ccccc2)c2ccccc2)C2C(=O)CC2C1 (stereo not drawn) [Compound 26]
MIC ([1]; read-out: Microdilution MIC): 100 µg/mL (≈ 221 µM)

C[C@H](O)[C@H]1C(=O)[C@@H]2C(C(=O)OC(c3ccccc3)c3ccccc3)=C([S+]([O-])c3ccccc3)C[C@@H]21 (relative stereo) [Compound 35, 3-Phenylsulfinyl-6-(1-hydroxyethyl)-7-oxobicyclo[3.2.0]hept-2-en-2-carboxylic Acid, Diphenylmethyl Ester]
MIC [4]: 25 µg/mL (≈ 51.4 µM) | active against B. cereus var. mycoides [4]: active | Effective Combination Concentrations: Units/mL Benzyl Penicillin [6]: 25 Units/mL | Effective Combination Concentrations: μg/mL Compound [6]: 3.2 µg/mL | Effective Combination Concentrations: Units/mL Benzyl Penicillin [3]: 10 Units/mL | Effective Combination Concentrations: μg/mL Compound [3]: 6.3 µg/mL | MIC [1, 7]: 50 µg/mL (≈ 103 µM)

O=C(OC(c1ccccc1)c1ccccc1)C1=C([S+]([O-])c2ccc([N+](=O)[O-])cc2)CC2CC(=O)C12 (stereo not drawn) [Compound 32, 3-(p-Nitrophenylsulfinyl)-7-oxobicyclo[3.2.0]hept-2-en-2-carboxylic Acid, Diphenylmethyl Ester]
MIC [4]: 6.3 µg/mL (≈ 12.9 µM) | active against B. cereus var. mycoides [4]: active | Effective Combination Concentrations: Units/mL Benzyl Penicillin [6]: 25 Units/mL | Effective Combination Concentrations: μg/mL Compound [6]: 1.5 µg/mL | Effective Combination Concentrations: Units/mL Benzyl Penicillin [3]: 5.0 Units/mL | Effective Combination Concentrations: Units/mL Benzyl Penicillin ([3]; listed as 32*): 10 Units/mL | Effective Combination Concentrations: μg/mL Compound [3]: 6.3 µg/mL | MIC [1, 7]: 25 µg/mL (≈ 51.3 µM) | survival rate ([5]; compound by itself at 500 mg/kg): 16.7% | survival ([5]; oral combination of 32 at 125 mg/kg and Penicillin G at 80 mg/kg): 83.3%

COC1(OC)C2C(C(=O)OC(c3ccccc3)c3ccccc3)=C(S(=O)(=O)c3ccccc3)CC2C1C(C)O (stereo not drawn) [Compound 79, 3-Phenylsulfonyl-6-(1-hydroxyethyl)-7,7-dimethoxybicyclo[3.2.0]hept-2-en-2-carboxylic Acid, Diphenylmethyl Ester]
Effective Combination Concentrations: Units/mL Benzyl Penicillin [3]: 20 Units/mL | Effective Combination Concentrations: μg/mL Compound [3]: 12.5 µg/mL | MIC [1, 7]: > 100 µg/mL

O=C(O)C1=C([S+]([O-])c2ccc([N+](=O)[O-])cc2)CC2CC(=O)C12 (stereo not drawn) [32+]
Effective Combination Concentrations: Units/mL Benzyl Penicillin [3]: 20 Units/mL | Effective Combination Concentrations: μg/mL Compound [3]: 12.5 µg/mL | MIC [1, 7]: > 100 µg/mL

CC(=O)NCCSC1=C(C(=O)OC(c2ccccc2)c2ccccc2)C2C(=O)[C@H]([C@H](C)O)[C@H]2C1 (relative stereo) [Compound 76, 3-(2-Acetamidoethylthio)-(1-hydroxyethyl)-7-oxobicyclo[3.2.0]hept-2-en-2-carboxylic Acid, Diphenylmethyl Ester]
Effective Combination Concentrations: Units/mL Benzyl Penicillin [3]: 10 Units/mL | Effective Combination Concentrations: μg/mL Compound [3]: 50 µg/mL | MIC [1, 7]: > 100 µg/mL

Cc1onc(-c2ccccc2Cl)c1C(=O)N[C@@H]1C(=O)N2[C@@H]1SC(C)(C)[C@@H]2C(=O)O [cloxacillin, reference compound]
inhibition at 75 µg/mL [2]: 10 to 15%

O=C(OC(c1ccccc1)c1ccccc1)C1=C(S(=O)(=O)c2ccc([N+](=O)[O-])cc2)CC2CC(=O)C12 (stereo not drawn) [Compound 73, 3-(p-Nitrophenylsulfonyl)-7-oxobicyclo[3.2.0]hept-2-en-2-carboxylic Acid, Diphenylmethyl Ester]
Effective Combination Concentrations: Units/mL Benzyl Penicillin [3]: 1.25 Units/mL | Effective Combination Concentrations: μg/mL Compound [3]: 25 µg/mL | MIC [1, 7]: 50 µg/mL (≈ 99.3 µM)
